The subject of data set [1] is Dengue virus 2 (DENV2, ATCC VR-1584). In words: DENV2 infection in AG129 mice: viral load in plasma (plaque assay). The settings on record: 100 mg/kg, SC. The data set is classed as in vivo. The method, then:
(§1) The purpose of this study was to determine the efficacy of the compounds on Dengue virus 2 (DENV2, ATCC® VR-1584™) infection in AG129 mice.
(§2) Six groups of AG129 mice, 6-8 weeks old, with 9 mice per group were used to test compounds according to table 3.1.1. Animal room environment was monitored for temperature and relative humidity twice per day. The temperature range was 22° C.±3° C. and humidity range was 30-70%. The animals were provided with 12 hours light and 12 hours darkness. Feed and drinking water was provided ad libitum. Compounds 43 and 113 were tested.
(§3) Twenty-four hours post treatment (Day 0), animals were injected intraperitoneally (IP) with 0.2 ml of virus suspension (˜5×10^7/animal).
(§4) Administration of compounds and vehicle to animals started twenty four hours before infection (Day −1). Animals were treated daily (From Day-1 to day 4) as per the experimental design shown below in table 3.1.5. Animals were monitored for general clinical signs, morbidity and mortality. Body weights were measured daily.
Blood was collected on days-1, 0, 1, 2, 3, 4 to 5.
BHK-21 cells were cultured to approximately 80% confluency in 24-well plates (NUNC, NY, USA). Plasma samples were 10-fold serially diluted in RPMI 1640 (GIBCO). BHK-21 monolayers were infected with 100 μl of each virus dilution. After incubation at 37° C. and 5% CO2 atmosphere for one hour with rocking at 15 min intervals, the medium was decanted and 1 ml of 1% (w/v)carboxymethyl cellulose in RPMI supplemented with 2% FCS was added to each well. After four days incubation at 37° C. in 5% CO2, the cells were fixed with 4% paraformaldehyde and stained for 30 min with […] of 1% crystal violet dissolved in 37% formaldehyde. After thorough rinsing with water, plates were dried and the plaques were scored visually.
(§5) The Mean±SD Log10PFU/ml, relative Mean±SD spleen weight, Mean±SD biomarker concentrations were estimated in each group. Significant differences between group means and control were analyzed by one-way ANOVA, followed by a Dunnett's multiple comparison test, using GraphPad Prism 5 at 95% confidence levels. A p value of <0.05 was considered as significant.

For data set [2] the test system is unchanged. In words: DENV2 infection in AG129 mice: clinical signs, body and spleen weights. The conditions noted are these: 100 mg/kg, SC; n = 9. The class given is in vivo. As to the method: as §1, §2
C6/36 (ATCC(CRL-1660) cell lines were grown in RPMI 1640 medium (Gibco/HiMedia) plus 5% fetal bovine serum at 28° C. Dengue virus type 2 (ATCC®VR-1584™) New Guinea C(NGC, DENV2) was passaged in BHK-21 cell cultures to make sufficient stocks for assay. Virus titer was determined by TCID50 method using BHK-21 cells.
as §3
The vehicle for tested compounds was 5% DMSO+95% (20%) hydroxypropylcyclodextrin. […] Formulations were prepared daily immediately before dosing.
as §4
Animals were sacrificed on day 5 post infection with Isoflurane followed by an overdose of CO2. Spleens were excised, measured and weighed.
as §5

Turning to `NC(=O)c1ncn([C@@H]2O[C@H](CO)[C@@H](O)[C@H]2O)n1` [Ribavirin, ribavirin, reference compound], the “Mean + SD Log10PFU/ml Plasma” value in data set [1] (Day 2) is listed as 3.34 ± 0.29 Log10PFU/ml; in data set [1] (Day 5), 3.50 ± 0.13 Log10PFU/ml. Also, the “Body weights of mice at the end of the study (Mean ± SD)” value in data set [2] came out at 20.11 ± 1.05 g.

These data come from patent US20250059231A1, “Protease inhibitors” (priority 2021, published 2025).
